In brackets after ≈: the same amount, converted by molar mass. Read-outs that look alike come from different tables or passages of the source. Each block holds one compound with its values, some of them ahead of it.
Tests used:
physchem = assay type: physicochemical
Method: (§1) Two neat, anhydrous solutions of ara-AC dissolved in DMSO and DMA, respectively, were prepared. […] Ara-AC has a solubility of approximately 20 mg/ml in water. The effective dose for ara-AC is 700 mg. […] At higher temperatures (e.g., 50°-60° C.), the ara-AC has proven stable for at least 3 weeks. Thus, the solutions of ara-AC in DMSO and DMA appear to be stable enough for commercial production, handling, and storage. By contrast, a solution of ara-AC in water would degrade 10% in 1.8 hours at 25° C.

[1] = assay type: physicochemical; settings: for time for which ara-AC has proven stable: neat, higher temperatures (e.g., 50°-60° C.)
Method: as §1

[2] = Precipitation on further dilution of the organic-aqueous solutions with sterile intravenous solutions; assay type: physicochemical; settings: solutions of Example 3 diluted with 5% dextrose-0.45% saline or 0.9% saline; 250 ml/hr vehicle, 6 ml/hr drug solution, 12 hours
Method: The organic-aqueous solutions of Example 3 are further diluted with two standard sterile intravenous solutions: a 5% dextrose-0.45% saline solution and a 0.9% saline solution. The aqueous delivery vehicles were delivered at a rate of 250 ml/hr. The concentrated drug solutions (approx. 10 mg/ml) were introduced through a side arm tubing located several inches above the injection point for 12 hours at the rate of 6 ml/hr. measured by a calibrated infusion pump. […] At this rate, the effective dosage concentration per unit volume of the final organic-aqueous solution was approximately 1 mg/ml. The final diluted organic-aqueous solutions were filtered using Wattman filter paper.

[3] = Degradation kinetics of ara-AC in aqueous and mixed organic-aqueous solvent systems at 25° C. (reverse phase HPLC)
[4] = Buffer (phosphate 0.01 M, pH 7.0, μ = 0.1 with NaCl), ara-AC 0.25 mg/ml, measured pH 7.0, 25° C.
[5] = Distilled H2O, ara-AC 0.25 mg/ml, measured pH 6.8, 25° C.

solubility (physchem; dma, organic solvent or mixture): 170 mg/mL (≈ 696 mM)
solubility (physchem; dmso, organic solvent or mixture): 370 mg/mL (≈ 1520 mM)
solubility (physchem; water): ~20 mg/mL (≈ 81.9 mM)
degradation during 5 months [1]: no observable degradation
time for which ara-AC has proven stable ([1]; anhydrous DMA solution): at least 3 weeks
time for which ara-AC has proven stable ([1]; anhydrous DMSO solution): at least 3 weeks
t90 ([3]; 5% DMA in Buffer (phosphate 0.01 M, pH 6.8), ara-AC 5.0 mg/ml, apparent pH 7.0, 25° C.): 1.9 h
t90 ([3]; 5% DMSO in Buffer (phosphate 0.01 M, pH 6.8), ara-AC 5.0 mg/ml, apparent pH 7.0, 25° C.): 2.0 h
t90 ([3]; 10% DMA in Buffer (phosphate 0.01 M, pH 6.8), ara-AC 5.0 mg/ml, apparent pH 7.1, 25° C.): 2.2 h
t90 ([3]; 10% DMSO in Buffer, ara-AC 5.0 mg/ml, apparent pH 7.1, 25° C.): 2.5 h
t90 ([3]; 25% DMA in Buffer (phosphate 0.01 M, pH 6.8), ara-AC 5.0 mg/ml, apparent pH 7.4, 25° C.): 2.7 h
t90 ([3]; 25% DMSO in Buffer, ara-AC 5.0 mg/ml, apparent pH 7.4, 25° C.): 2.8 h
t90 ([3]; 50% DMA in Buffer (phosphate 0.01 M, pH 6.8), ara-AC 5.0 mg/ml, apparent pH 8.1, 25° C.): 4.5 h
t90 ([3]; 55% DMA in Buffer (phosphate 0.01 M, pH 6.8), ara-AC 5.0 mg/ml, apparent pH 8.3, 25° C.): 6.0 h
t90 ([3]; 60% DMA in Buffer (phosphate 0.03 M, pH 6.0, μ = 0.3 M with NaCl), ara-AC 5.0 mg/ml, apparent pH 7.4, 25° C.): 15.0 h
t90 ([3]; 60% DMSO in Buffer (phosphate 0.03 M, pH 6.0, μ = 0.3 M with NaCl), ara-AC 5.0 mg/ml, apparent pH 7.8, 25° C.): 16.0 h
t90 ([3]; 65 wt. % DMA-35 wt. % water solution): 16.0 h
t90 ([3]; 70% DMSO in H2O, ara-AC 5.0 mg/ml, apparent pH 8.0, 25° C.): 28.0 h
t90 ([3]; 70 wt % DMSO-30 wt. % water solution): 28.0 h
Kobs (observed degradation rate constant) [3, 4]: 1.55 × 10^-2 hr.^-1
t90 [3, 4]: 1.7 h
Kobs (observed degradation rate constant) [3, 5]: 1.34 × 10^-2 hr.^-1
t90 [3, 5]: 1.8 h
t90 (10% decomposition in water) ([3]; water, 25° C.): 1.8 h
SMILES: Nc1ncn([C@@H]2O[C@H](CO)[C@@H](O)[C@@H]2O)c(=O)n1 [ara-AC, 5-azacytosine arabinoside]
precipitation or other undesirable effects [2]: No precipitation or other undesirable effects

SMILES: Nc1ncn([C@@H]2O[C@H](CO)[C@@H](O)[C@H]2O)c(=O)n1 [5-AC, 5-azacytidine]
precipitation or other undesirable effects [2]: No precipitation or other undesirable effects

— US4684630A, “Method of parenterally delivering drugs and related compositions” (priority 1985, dated 1987)
